Read-outs that look alike come from different tables or passages of the source.

Here are results for one compound from patent US9308244B2, “Combination therapy using active immunotherapy” (immatics Biotechnologies GmbH, priority 2007, dated 2016).

Series [1] can be described thus: HPLC quantification of TKI plasma levels in mouse models. Type of series: in vivo. The conditions noted are these: oral dosing.
Method: The proteins were precipitated with 40 μl 100% acetonitril (Acros, Geel, Belgium), centrifuged and filtered through a 0.2 μm PVDF filter. 10 μl was directly injected to the HPLC system.
The HPLC system consisted of a Binary HPLC pump (Shimadzu LC10aVP), a Shimadzu SIL-10aVP autosampler, a Shimadzu CTO-10asVP column oven and a Shimadzu SPD10aVP detector. Data acquisition and analysis was performed using the Shimadzu Class-VP 7.3 software. Chromatographic separation was carried out on a reverse phase C18 column (Reprosil Pur ODS-3μ, 60×2 mm). To protect the analytical column a guard column has been used (Reprosil Pur ODS-5μ, 10×2 mm). Eluent A consisted of water (LCMS grade, Acros, Geel, Belgium), modified by 0.1% formic acid (Merck, Darmstadt, Germany) and eluent B was 80% acetonitril (Acros, Geel, Belgium) with 0.1% formic acid (Merck, Darmstadt, Germany).
The following gradient was used: 5 min 25% eluent B, 15 min 62.5% eluent B, 6 min 80% eluent B and 5 min 80% eluent B. The temperature of the autosampler was kept at 4° C. The temperature of the column was maintained at 30° C. The detection wavelength was set at 400 nm, the injection volume was 10 μl. The column was equilibrated with the mobile phase at a flow rate 0.5 ml/min.
For Sorafenib analysis, 10 μl of 50% acetonitril (Acros, Geel, Belgium) was added to 50 serum or medium in 0.5 ml PCR tubes and mixed for 10 seconds. […]
How the values of series [2] were obtained:
Female C57BL/6 mice (20-25 g, Harlan Winkelmann GmbH, Borchen, Germany) were used for all experiments described in this section. Animals were kept in the animal facility of the Dept. of Immunology at the University of Tuebingen. Animals were cared for by trained animal keepers and health status of animals was supervised by the veterinaries of the University of Tübingen. Feeding with drug was also performed in part by the local animal keepers after special training. All animals were supplied with water and food ad libitum. The described experiments were performed according to procedure no. IM1/06 approved by the Regierungsprasidium Tuebingen.
A liquid, viscous vehicle composed of 30% (w/v) Cremophor EL (Sigma, Deisenhofen, Germany), 30% (w/v) PEG 400 (Sigma, Deisenhofen, Germany), 10% ethanol p.a., 10% glucose was used. Sunitinib and sorafenib were suspended in vehicle according to the planned dosages in a way that […] body weight had to be applied to all mice, according to approx. 50 μl of suspension. Feasible aliquots were prepared from suspensions and from vehicle and stored until use at −20° C. in the dark. Thawed substance was stored at 4° C. and used within the next three days. Animals were weighed before start of treatment and thereafter weekly. The deduced dosage was applied daily using a 1 ml syringe with gavage into the backward cavity of the mouth of the animal without anesthesia. Drug delivery into blood plasma was controlled as described in example 1.
1) Immunization under continuous treatment with tyrosine kinase inhibitors. Pretreatment phase was two weeks (see FIG. 5A). […]
3) The experimental design was identical to a) Beside negative and positive control groups, groups treated with 60 mg/kg body weight sorafenib, and 20 and 40 mg/kg body weight sunitinib were included (6 mice per group). For spleen cells, CD4, Tregs, CD8 cells, and B cells were assessed, for PBMCs CD4, CD8, B cells and Tregs were analyzed.

Series [3] concerns HLA-A*02+ PBMCs (CD4+ and CD8+ effector cells). The conditions noted are these: HLA-mismatched target cells, seven days, increasing TKI concentrations. Here is the method: Two fresh buffy coat (HLA-A*02+ and HLA-A*02−) were obtained from the Katharinenhospital Stuttgart. PBMCs were isolated by standard density gradient isolation and incubated overnight in T-cell medium (TCM) for human in vitro priming as in WP03 #4. Ca2+ and Mg2+ free PBS (Cambrex) washed HLA-A*02+ PBMCs were labeled at 1×10^7 cells/ml with 1 μM CFSE (Fluka, Buchs, Germany) at 37° C. for 4 minutes. Labeling was stopped by adding the same volume heat inactivated FCS (Invitrogen) and labeled cells were washed in TCM. Irradiation of target or feeder cells, if indicated, was performed at 33 Gy using a 1000 Elite gammacell (MDS Nordion, Ottawa, Canada). Stock solutions of sorafenib tosylate and sunitinib malate were prepared in DMSO (Merck, Darmstadt, Germany) and frozen aliquoted at −80° C. Mixed lymphocyte reactions were performed by coculturing 2×10^5 CFSE labeled effector plus 2×10^5 irradiated target cells as indicated per well of 96 well round bottom plates in 200 μl TCM in the presence of indicated concentrations of sorafenib, sunitinib or DMSO at 37° C. and 5% CO2 (day 1). On day 4, 100 μl supernatant was removed and 100 μl TCM supplemented with the original concentration of TKIs was added. […] Cells were washed, fixed in PFEA containing 1% formaldehyde (Fluka) and analyzed on a FACSCalibur (BD). […]

Another series deals with A498 tumor cells. The note with it: A498, 24 h; 13 μM sorafenib or 250 nM sunitinib; normal medium control = 100%.
In the next series the test system is C57BL/6 T cells. In words: Mouse mixed lymphocyte reaction (CFSE-labeled C57BL/6 spleen cells vs irradiated BALB/c splenocytes). The class given is cell-based. The conditions noted are these: sorafenib: at concentration near the steady-state plasma level of treated patients. As to the method: CFSE-labeled spleen cells from C57BL/6 (H2-b) mice were co-cultured with irradiated splenocytes from BALB/c (H2-d) mice, resulting in the strong allogenic response and proliferation of the C57BL/6 T cells against H2-d MHC molecules. The proliferation of the T cells results in a diminished CFSE staining of the divided cells. Percentage of divided cells and their number of divisions can be analyzed by flow cytometry.
Spleen cells were prepared from 1 C57BL/6 mouse and 1 BALB/c mouse (Harlan Winkelmann GmbH, Borchen, Germany). BALB/c cells were irradiated with 33 Gy. Effectors (C57BL/6) were adjusted to 20 Mio cells/ml. A 2 mM 5(6)-Carboxyfluorescindiacetate-N-succinimidylester (CFSE, Fluka, Buchs, Switzerland) solution in PBS was freshly prepared from a 10 mM DMSO stock solution. The cell suspension was mixed 1:1 with the CFSE solution. After incubation at 37° C. for 4 min, reaction was stopped by addition of fetal calf serum (Biochrom, Berlin, Germany), and free CFSE was washed out. 2×10^5 stimulator cells (BALB/c) were plated into cavities of a 96-well round-bottom plate. 1×10^5 or 2×10^5 CFSE-labeled effector cells and tyrosine kinase inhibitors at two different concentrations were added. Appropriate positive and negative controls were included. All cultures were in 200 μl T-cell medium with 0.1% (v/v) DMSO for 5 or 7 days without further medium change. Thereafter, cells were stained with fluorescently labelled anti-CD4-PerCP and anti-CD8-FITC antibodies (both BD Biosciences, Heidelberg, Germany) and analyzed by flow cytometry.
The experiment described above was repeated with the exception that a 96-well flat-bottom plate was used for mixed lymphocyte reactions (MLRs), a syngenic control with irradiated C57BL/6 cells was included, more concentrations of inhibitors were assessed, and all groups were analyzed in triplicates.
During cultivation, half of the medium was replaced with fresh appropriate medium supplemented with final concentrations of tyrosine kinase inhibitors every day, and proliferation was analyzed at day 7 only. Additionally cells were stained for H2-Kb to clearly identify effector cells in a further dimension.

For series [4], the system named is OVA-001 specific CD8+ T-cells. Type of series: in vivo, C57BL/6 mice. The conditions noted are these: continuous treatment, OVA-001 immunized.

Regarding `CCN(CC)CCNC(=O)c1c(C)[nH]c(/C=C2\C(=O)Nc3ccc(F)cc32)c1C` [Sunitinib], the “Bioavailability / plasma levels at the used doses” value in series [1] is “confirmed to reach plasma levels shown by others to be effective in tumor growth inhibition”. In series [2] (80 mg/kg sunitinib, experiment one), the Deaths is 2 out of 6. Moreover, the “Inflamed lesions of injections sites” value in series [2] (mouse, in vivo) is listed as “frequently observed”. Also, the “Proliferation of CD8+ and CD4+ effector cells” value in series [3] is given as “No effect”. Also, in the series with A498 tumor cells, the “% Expression relative to control: ADFP” value came to 87%, the “% Expression relative to control: APOL1” value was 62%, the “% Expression relative to control: CCND1” value is reported as 93% and the “% Expression relative to control: GUCY1A3” value turned out to be 57%. In the series on A498 tumor cells, the “% Expression relative to control: HLA-A” value stood at 93%, the “% Expression relative to control: HLA-B” value came out at 76%, the “% Expression relative to control: HLA-C” value is reported as 87% and the “% Expression relative to control: MET” value is 41%. For the same compound, in the series on A498 tumor cells, the “% Expression relative to control: MMP7” value is given as 31%, the “% Expression relative to control: MUC1” value is reported as 54%, the “% Expression relative to control: PSMB8” value was 87% and the “% Expression relative to control: PSMB9” value amounted to 132%. Moreover, in the series with A498 tumor cells, the “% Expression relative to control: TAP1” value worked out at 123%. The “Drug-related toxicity for cells in mixed lymphocyte reactions (summary)” value with C57BL/6 T cells is recorded as “no drug-related toxicity was observed”. For the same compound, the “OVA-001 specific CD8+ T-cells, mean” value in series [4] (20 mg/kg bw, n=12) was found to be 3.47%. Besides, the “OVA-001 specific CD8+ T-cells, mean” value in series [4] (40 mg/kg bw, n=6) worked out at 2.73%. Moreover, the “OVA-001 specific CD8+ T-cells, mean” value in series [4] (80 mg/kg bw, n=2) worked out at 0.51%.
